Data on five compounds can be found in ChEMBL document CHEMBL1133292, “Some selective reactions of moenomycin A” (Bioorg Med Chem Lett, 2000).

Structures are written as SMILES.

Assay [1] in a line: Compound was coli. Further details: species or system Escherichia coli; call rule not given here.
Assay [2] in a line: Compound was coli; Inactive. On the set-up: species or system Escherichia coli.

`C=CC(C)(CC/C=C(\C)CCC=C(C)C)C(O)CO[C@H](COP(=O)(O)O[C@H]1O[C@@H](C(N)=O)[C@@](C)(O)[C@H](OC(N)=O)[C@@H]1O[C@@H]1O[C@@H](CO[C@@H]2O[C@@H](CO)[C@@H](O)[C@H](O)[C@@H]2O)[C@@H](O[C@@H]2O[C@@H](C)[C@@H](O[C@@H]3O[C@@H](C(N)=O)[C@H](O)[C@H](O)[C@@H]3O)[C@H](O)[C@@H]2NC(C)=O)[C@H](O)[C@@H]1NC(C)=O)C(=O)O` (stereo not given in full) yielded an IC50 in assay [1] of 106 nM l-1.
`CCCCCCCCc1ccc(NCCO[C@H](COP(=O)(O)O[C@H]2O[C@@H](C(N)=O)[C@@](C)(O)[C@H](OC(N)=O)[C@@H]2O[C@@H]2O[C@@H](CO[C@@H]3O[C@@H](CO)[C@@H](O)[C@H](O)[C@@H]3O)[C@@H](O[C@@H]3O[C@@H](C)[C@@H](O[C@@H]4O[C@@H](C(N)=O)[C@H](O)[C@H](O)[C@@H]4O)[C@H](O)[C@@H]3NC(C)=O)[C@H](O)[C@@H]2NC(C)=O)C(=O)O)cc1` returned an IC50 in assay [1] of 31 nM l-1.
In assay [1], `CCCCCCCCCCCCCCNCCO[C@H](COP(=O)(O)O[C@H]1O[C@@H](C(N)=O)[C@@](C)(O)[C@H](OC(N)=O)[C@@H]1O[C@@H]1O[C@@H](CO[C@@H]2O[C@@H](CO)[C@@H](O)[C@H](O)[C@@H]2O)[C@@H](O[C@@H]2O[C@@H](C)[C@@H](O[C@@H]3O[C@@H](C(N)=O)[C@H](O)[C@H](O)[C@@H]3O)[C@H](O)[C@@H]2NC(C)=O)[C@H](O)[C@@H]1NC(C)=O)C(=O)O` registered an IC50 of 247 nM l-1.
On the same count and under the same terms, with `C=C(C/C=C(\C)CCC=C(C)C)CCC(C)(C)/C=C/CC/C(C)=C/CO[C@@H](COP(=O)(O)O[C@H]1O[C@H](C(N)=O)[C@@](C)(O)[C@H](OC(N)=O)[C@H]1O[C@@H]1O[C@H](CO[C@@H]2O[C@H](CO)[C@@H](O)[C@H](O)[C@H]2O)[C@@H](O[C@@H]2O[C@H](C)[C@@H](O[C@@H]3O[C@H](C(=O)NC4=C(O)CCC4=O)[C@H](O)[C@H](O)[C@H]3O)[C@H](O)[C@H]2NC(C)=O)[C@H](O)[C@H]1NC(C)=O)C(=O)O` [MOENOMYCIN A] the figure was 1.5 nM l-1.
Take `CC(=O)N[C@@H]1[C@H](O[C@H]2[C@H](O)[C@H](NC(C)=O)[C@H](O[C@@H]3[C@@H](OP(=O)(O)OC[C@@H](OCCN(C4CCCCC4)C4CCCCC4)C(=O)O)O[C@@H](C(N)=O)[C@@](C)(O)[C@@H]3OC(N)=O)O[C@H]2CO[C@@H]2O[C@@H](CO)[C@@H](O)[C@H](O)[C@@H]2O)O[C@@H](C)[C@@H](O[C@@H]2O[C@@H](C(N)=O)[C@H](O)[C@H](O)[C@@H]2O)[C@@H]1O`: in assay [2], the IC50 entry is “Not Active”.
